According to article PMC3644221 (Toxicology letters, 2013):

Target: CYP1A1 (Homo sapiens, UniProt P04798)
Experiment: inhibition of CYP1A1-specific Luciferin-CEE activity
Format: biochemical

CYP1A1, sequence (P04798 whole entry): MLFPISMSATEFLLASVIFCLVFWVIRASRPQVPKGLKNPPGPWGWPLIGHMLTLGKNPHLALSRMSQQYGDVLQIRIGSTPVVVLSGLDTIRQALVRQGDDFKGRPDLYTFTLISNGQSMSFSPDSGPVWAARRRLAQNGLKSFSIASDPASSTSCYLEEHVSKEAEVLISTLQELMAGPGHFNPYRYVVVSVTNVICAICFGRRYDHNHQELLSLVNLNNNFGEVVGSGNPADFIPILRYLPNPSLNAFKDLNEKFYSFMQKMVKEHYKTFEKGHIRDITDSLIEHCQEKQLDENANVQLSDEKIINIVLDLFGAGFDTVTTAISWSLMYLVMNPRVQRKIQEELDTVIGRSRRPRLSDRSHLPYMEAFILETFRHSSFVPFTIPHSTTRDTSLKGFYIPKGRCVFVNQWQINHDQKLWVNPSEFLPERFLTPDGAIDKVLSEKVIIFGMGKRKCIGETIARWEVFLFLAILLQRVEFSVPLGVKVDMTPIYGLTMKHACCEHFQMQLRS

SMILES	IC50 [µM]
Oc1cc(O)c2cc(O)c(-c3cc(O)c(O)c(O)c3)[o+]c2c1 [delphinidin]	77
Oc1ccc(-c2[o+]c3cc(O)cc(O)c3cc2O)cc1 [pelargonidin]	33
